{"source": "patent US9492471B2", "about": "“Methods of treating a disease or disorder associated with Bruton'S Tyrosine Kinase” (Celgene Avilomics Research, Inc., priority 2013, dated 2016)", "assay_in_all_cases": "HotSpot kinase profiling", "type_in_all_cases": "biochemical", "key": {"[1]": {"target": "T1, IRR/INSRR (Homo sapiens, UniProt P14616)", "T1 construct": "purchased Reaction Biology Corp", "T1 sequence (P14616 27-1297)": "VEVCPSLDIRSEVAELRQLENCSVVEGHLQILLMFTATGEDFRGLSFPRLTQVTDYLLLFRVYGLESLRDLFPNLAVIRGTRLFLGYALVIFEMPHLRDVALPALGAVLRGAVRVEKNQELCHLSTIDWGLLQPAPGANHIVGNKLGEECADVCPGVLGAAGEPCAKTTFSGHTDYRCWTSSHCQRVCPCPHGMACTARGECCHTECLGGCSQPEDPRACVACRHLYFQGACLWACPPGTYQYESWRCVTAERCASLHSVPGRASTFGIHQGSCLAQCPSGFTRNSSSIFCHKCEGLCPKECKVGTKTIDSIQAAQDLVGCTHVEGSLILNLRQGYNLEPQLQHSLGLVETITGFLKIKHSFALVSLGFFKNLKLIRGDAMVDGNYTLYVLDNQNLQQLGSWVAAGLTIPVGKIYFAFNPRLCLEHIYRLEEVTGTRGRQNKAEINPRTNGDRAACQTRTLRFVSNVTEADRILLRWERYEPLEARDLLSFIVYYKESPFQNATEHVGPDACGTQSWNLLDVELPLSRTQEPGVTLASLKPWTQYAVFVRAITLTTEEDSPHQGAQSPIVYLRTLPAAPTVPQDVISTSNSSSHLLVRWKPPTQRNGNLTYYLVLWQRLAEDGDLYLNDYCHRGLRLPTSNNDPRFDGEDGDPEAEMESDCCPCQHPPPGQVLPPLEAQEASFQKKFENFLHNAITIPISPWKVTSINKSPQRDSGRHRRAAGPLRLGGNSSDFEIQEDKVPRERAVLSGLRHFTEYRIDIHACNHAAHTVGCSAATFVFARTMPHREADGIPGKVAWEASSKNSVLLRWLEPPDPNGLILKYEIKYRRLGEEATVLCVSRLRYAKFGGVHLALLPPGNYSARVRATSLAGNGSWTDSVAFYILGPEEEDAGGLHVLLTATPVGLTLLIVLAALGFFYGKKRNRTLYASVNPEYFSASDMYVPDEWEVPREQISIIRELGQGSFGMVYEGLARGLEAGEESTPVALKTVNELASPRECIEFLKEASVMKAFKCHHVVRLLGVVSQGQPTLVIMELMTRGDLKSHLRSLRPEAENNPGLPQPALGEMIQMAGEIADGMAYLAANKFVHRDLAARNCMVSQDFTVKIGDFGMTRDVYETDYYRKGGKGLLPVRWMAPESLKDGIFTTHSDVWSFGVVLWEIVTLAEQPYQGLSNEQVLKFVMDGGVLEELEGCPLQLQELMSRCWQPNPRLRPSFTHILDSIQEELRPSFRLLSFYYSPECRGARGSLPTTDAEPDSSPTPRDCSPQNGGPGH", "summary_of_the_method": "(§1)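 Activity is measured by radiolabel transfer captured on P81 filters after a 2 h room-temperature reaction of kinase, substrate and cofactors. Values are percent inhibition against DMSO.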"}, "[2]": {"target": "T2, LATS1 (Homo sapiens, UniProt O95835)", "T2 construct": "purchased Reaction Biology Corp", "T2 sequence (O95835 1-1130)": "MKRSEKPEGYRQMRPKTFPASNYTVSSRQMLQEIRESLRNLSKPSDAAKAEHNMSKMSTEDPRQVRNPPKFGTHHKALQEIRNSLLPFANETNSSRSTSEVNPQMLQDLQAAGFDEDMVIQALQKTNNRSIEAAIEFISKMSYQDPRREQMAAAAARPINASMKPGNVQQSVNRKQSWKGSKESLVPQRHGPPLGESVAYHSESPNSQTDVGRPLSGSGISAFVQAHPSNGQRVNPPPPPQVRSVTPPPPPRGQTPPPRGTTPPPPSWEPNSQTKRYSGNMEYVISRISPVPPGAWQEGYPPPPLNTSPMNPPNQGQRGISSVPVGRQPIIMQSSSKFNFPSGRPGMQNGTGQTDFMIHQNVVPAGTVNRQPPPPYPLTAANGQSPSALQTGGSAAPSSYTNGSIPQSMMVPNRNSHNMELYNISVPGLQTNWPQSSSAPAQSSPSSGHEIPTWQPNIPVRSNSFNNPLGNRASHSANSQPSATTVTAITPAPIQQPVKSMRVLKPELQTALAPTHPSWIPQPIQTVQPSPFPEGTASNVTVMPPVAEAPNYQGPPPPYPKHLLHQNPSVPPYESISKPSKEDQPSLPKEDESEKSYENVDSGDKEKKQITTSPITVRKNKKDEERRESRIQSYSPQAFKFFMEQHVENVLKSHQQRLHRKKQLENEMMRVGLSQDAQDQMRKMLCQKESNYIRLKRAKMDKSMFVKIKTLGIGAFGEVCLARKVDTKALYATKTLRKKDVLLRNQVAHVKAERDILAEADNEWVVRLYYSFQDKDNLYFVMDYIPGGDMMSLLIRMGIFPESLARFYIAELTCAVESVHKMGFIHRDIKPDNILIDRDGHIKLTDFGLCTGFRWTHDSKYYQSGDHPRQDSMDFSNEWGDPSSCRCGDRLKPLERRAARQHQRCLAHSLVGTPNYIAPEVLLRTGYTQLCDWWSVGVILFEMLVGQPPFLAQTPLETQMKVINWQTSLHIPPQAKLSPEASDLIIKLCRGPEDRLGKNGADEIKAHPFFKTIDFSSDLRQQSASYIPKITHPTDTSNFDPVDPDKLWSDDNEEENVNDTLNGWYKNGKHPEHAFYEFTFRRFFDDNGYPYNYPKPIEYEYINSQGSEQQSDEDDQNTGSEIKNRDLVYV", "summary_of_the_method": "as §1"}, "[3]": {"target": "T3, CDK1/cyclin B (Homo sapiens, UniProt P06493)", "T3 construct": "purchased Reaction Biology Corp", "T3 sequence (P06493 whole entry)": "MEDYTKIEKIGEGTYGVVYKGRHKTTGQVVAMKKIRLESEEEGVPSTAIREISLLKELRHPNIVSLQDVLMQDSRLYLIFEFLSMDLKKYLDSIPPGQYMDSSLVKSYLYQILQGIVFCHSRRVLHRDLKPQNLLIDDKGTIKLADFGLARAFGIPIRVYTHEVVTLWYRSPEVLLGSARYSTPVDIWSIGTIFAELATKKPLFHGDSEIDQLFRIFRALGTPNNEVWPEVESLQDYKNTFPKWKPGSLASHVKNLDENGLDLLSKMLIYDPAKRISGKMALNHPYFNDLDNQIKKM", "T3 sequence (P14635 whole entry partner)": "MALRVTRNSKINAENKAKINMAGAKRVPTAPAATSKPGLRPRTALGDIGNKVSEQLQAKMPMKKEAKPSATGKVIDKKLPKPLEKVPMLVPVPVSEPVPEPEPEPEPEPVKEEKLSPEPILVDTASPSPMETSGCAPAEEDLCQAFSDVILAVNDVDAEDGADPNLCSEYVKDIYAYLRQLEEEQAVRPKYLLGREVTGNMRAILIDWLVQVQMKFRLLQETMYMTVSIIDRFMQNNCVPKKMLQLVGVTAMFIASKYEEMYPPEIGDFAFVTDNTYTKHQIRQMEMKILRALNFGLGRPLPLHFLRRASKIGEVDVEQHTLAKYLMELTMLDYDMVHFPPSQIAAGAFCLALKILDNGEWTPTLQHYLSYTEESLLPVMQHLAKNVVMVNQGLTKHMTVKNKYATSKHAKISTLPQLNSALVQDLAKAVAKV", "summary_of_the_method": "as §1"}, "[4]": {"target": "T4, MEK2 (Homo sapiens, UniProt P36507)", "T4 construct": "purchased Reaction Biology Corp", "T4 sequence (P36507 whole entry)": "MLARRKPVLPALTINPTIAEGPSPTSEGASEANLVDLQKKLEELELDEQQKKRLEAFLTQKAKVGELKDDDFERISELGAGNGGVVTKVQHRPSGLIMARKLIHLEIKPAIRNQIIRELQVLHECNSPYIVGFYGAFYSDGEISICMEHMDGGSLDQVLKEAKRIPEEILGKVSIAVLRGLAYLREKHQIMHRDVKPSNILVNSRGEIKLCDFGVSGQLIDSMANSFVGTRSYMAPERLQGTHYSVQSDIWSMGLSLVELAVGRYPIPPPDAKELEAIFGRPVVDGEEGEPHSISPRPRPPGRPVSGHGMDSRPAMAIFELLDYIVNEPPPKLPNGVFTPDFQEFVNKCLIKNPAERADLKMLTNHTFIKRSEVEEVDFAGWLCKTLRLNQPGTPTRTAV", "summary_of_the_method": "as §1"}, "[5]": {"target": "T5, TRKB (Homo sapiens, UniProt Q16620)", "T5 construct": "purchased Reaction Biology Corp", "T5 sequence (Q16620 32-822)": "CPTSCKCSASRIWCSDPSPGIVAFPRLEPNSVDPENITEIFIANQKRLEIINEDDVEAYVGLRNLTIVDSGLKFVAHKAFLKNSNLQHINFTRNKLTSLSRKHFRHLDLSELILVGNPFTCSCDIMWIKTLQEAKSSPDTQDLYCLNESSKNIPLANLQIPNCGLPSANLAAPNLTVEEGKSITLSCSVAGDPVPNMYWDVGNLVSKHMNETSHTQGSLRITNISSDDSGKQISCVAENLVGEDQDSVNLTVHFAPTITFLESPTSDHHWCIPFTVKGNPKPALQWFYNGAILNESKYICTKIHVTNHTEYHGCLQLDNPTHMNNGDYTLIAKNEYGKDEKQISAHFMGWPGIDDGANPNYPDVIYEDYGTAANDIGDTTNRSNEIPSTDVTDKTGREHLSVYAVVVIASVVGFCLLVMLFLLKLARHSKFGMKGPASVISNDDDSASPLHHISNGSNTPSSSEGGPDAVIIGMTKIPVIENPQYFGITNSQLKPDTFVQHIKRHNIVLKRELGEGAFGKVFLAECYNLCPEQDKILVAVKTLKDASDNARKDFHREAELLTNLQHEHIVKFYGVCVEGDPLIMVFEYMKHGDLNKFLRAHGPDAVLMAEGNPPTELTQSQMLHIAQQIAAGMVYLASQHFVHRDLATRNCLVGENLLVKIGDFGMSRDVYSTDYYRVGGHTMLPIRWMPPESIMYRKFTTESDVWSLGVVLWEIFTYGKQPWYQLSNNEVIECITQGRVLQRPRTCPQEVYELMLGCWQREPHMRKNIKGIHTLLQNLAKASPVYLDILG", "summary_of_the_method": "as §1"}, "[6]": {"target": "T6, ALK4/ACVR1B (Homo sapiens, UniProt P36896)", "T6 construct": "purchased Reaction Biology Corp", "T6 sequence (P36896 24-505)": "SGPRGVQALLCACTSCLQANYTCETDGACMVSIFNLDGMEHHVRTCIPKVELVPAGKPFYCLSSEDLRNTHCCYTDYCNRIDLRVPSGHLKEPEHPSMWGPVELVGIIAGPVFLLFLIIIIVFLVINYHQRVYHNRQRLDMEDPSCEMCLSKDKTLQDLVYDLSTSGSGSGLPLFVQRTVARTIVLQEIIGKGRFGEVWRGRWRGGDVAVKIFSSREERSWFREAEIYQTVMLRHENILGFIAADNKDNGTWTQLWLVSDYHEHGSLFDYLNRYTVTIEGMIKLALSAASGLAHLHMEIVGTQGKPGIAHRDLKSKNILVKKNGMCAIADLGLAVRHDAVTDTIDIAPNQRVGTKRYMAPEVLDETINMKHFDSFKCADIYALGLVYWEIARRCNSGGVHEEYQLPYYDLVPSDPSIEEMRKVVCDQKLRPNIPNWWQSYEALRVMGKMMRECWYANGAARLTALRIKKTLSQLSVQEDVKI", "summary_of_the_method": "as §1"}, "[7]": {"target": "T7, Aurora B (Homo sapiens, UniProt Q96GD4)", "T7 construct": "purchased Reaction Biology Corp", "T7 sequence (Q96GD4 whole entry)": "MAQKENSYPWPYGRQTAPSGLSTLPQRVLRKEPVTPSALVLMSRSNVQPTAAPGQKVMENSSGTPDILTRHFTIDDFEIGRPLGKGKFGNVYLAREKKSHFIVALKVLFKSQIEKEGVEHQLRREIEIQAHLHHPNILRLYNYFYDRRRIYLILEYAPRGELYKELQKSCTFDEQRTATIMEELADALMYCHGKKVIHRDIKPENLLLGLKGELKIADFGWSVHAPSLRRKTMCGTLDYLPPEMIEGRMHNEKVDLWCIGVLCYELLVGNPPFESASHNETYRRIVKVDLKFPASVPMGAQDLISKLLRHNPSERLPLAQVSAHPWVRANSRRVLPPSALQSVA", "summary_of_the_method": "as §1"}, "[8]": {"conditions": "read-out: % Enzyme Activity (relative to DMSO controls) Run 1"}, "[9]": {"conditions": "read-out: % Enzyme Activity (relative to DMSO controls) Run 2"}}, "note": "Like-named read-outs stand apart in the source and are kept apart here."}
{"smiles": "C=CC(=O)Nc1cccc(Nc2nc(Nc3ccc(OCCOC)c(F)c3)ncc2F)c1", "note": "[Compound 2]", "values": [{"measurement": "inhibition at 3 µM", "setting": "[1]", "value": 10.1, "unit": "%"}, {"measurement": "remaining activity at 3 µM", "setting": "[1]; [8]", "value": 88.9, "unit": "%"}, {"measurement": "remaining activity at 3 µM", "setting": "[1]; [9]", "value": 91, "unit": "%"}, {"measurement": "inhibition at 3 µM", "setting": "[2]", "value": 10.3, "unit": "%"}, {"measurement": "remaining activity at 3 µM", "setting": "[2]; [8]", "value": 89.5, "unit": "%"}, {"measurement": "remaining activity at 3 µM", "setting": "[2]; [9]", "value": 89.8, "unit": "%"}, {"measurement": "inhibition at 3 µM", "setting": "[3]", "value": 12.9, "unit": "%"}, {"measurement": "remaining activity at 3 µM", "setting": "[3]; [8]", "value": 87.2, "unit": "%"}, {"measurement": "remaining activity at 3 µM", "setting": "[3]; [9]", "value": 87, "unit": "%"}, {"measurement": "inhibition at 3 µM", "setting": "[4]", "value": -5.66, "unit": "%"}, {"measurement": "remaining activity at 3 µM", "setting": "[4]; [8]", "value": 106, "unit": "%"}, {"measurement": "remaining activity at 3 µM", "setting": "[4]; [9]", "value": 105, "unit": "%"}, {"measurement": "inhibition at 3 µM", "setting": "[5]", "value": 14.2, "unit": "%"}, {"measurement": "remaining activity at 3 µM", "setting": "[5]; [8]", "value": 86.5, "unit": "%"}, {"measurement": "remaining activity at 3 µM", "setting": "[5]; [9]", "value": 85, "unit": "%"}, {"measurement": "inhibition at 3 µM", "setting": "[6]", "value": -42.2, "unit": "%"}, {"measurement": "remaining activity at 3 µM", "setting": "[6]; [8]", "value": 141, "unit": "%"}, {"measurement": "remaining activity at 3 µM", "setting": "[6]; [9]", "value": 144, "unit": "%"}, {"measurement": "inhibition at 3 µM", "setting": "[7]", "value": 86.9, "unit": "%"}, {"measurement": "remaining activity at 3 µM", "setting": "[7]; [8]", "value": 13.2, "unit": "%"}, {"measurement": "remaining activity at 3 µM", "setting": "[7]; [9]", "value": 12.9, "unit": "%"}]}
